The source of these data is PubChem BioAssay (NCI).

Common to all, as to assay: inhibition of tumour cell growth, NCI panel, 48 h
For experiment [1], the system named is SF-268 CNS.
Experiment [2] relates to HOP-92 NSCLC.
Experiment [3] relates to SF-295 CNS.
Experiment [4] has as its system T-47D breast.

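Method: 48-hour compound exposure of cells in 96-well plates, five concentrations, linear interpolation of endpoints. At the GI50, growth is halved. At the TGI there is no net growth.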 Where a SMILES comes first, the peptide text is derived from it. [ ]: non-standard residue; d: D form. The star is where a group is joined. NMeAc5c = CNC1(C(=O)O)CCCC1; Boc = CC(C)(C)OC(=O)*; OBn = c1ccc(CO*)cc1

On to `O=C(N/N=C(/COc1ccc(Cl)cc1)N=Cc1ccncc1)c1ccncc1`, for which the TGI in experiment [1], in experiment [2], in experiment [3] and in experiment [4] was over 100 µM each time.
For the compound `Cc1cn2c(/C=N/N=C(N)N)c(-c3cccc([N+](=O)[O-])c3)nc2s1`, the results for the TGI in experiment [1], in experiment [2] and in experiment [3] were 2.58 µM, 3.35 µM and 3.3 µM, respectively.
Regarding `O=C1CCCSC(=O)N1Cc1ccccc1`, the TGI in experiment [1], in experiment [2], in experiment [3] and in experiment [4] was over 100 µM in each case.
Regarding `O=C1c2ccccc2-c2c1c1ccccc1c(=O)n2CCNCCNCCNCCn1c2c(c3ccccc3c1=O)C(=O)c1ccccc1-2`, the GI50 in experiment [2] is 2.9 µM; in experiment [3] it was 1.4 µM; in experiment [4], 2.95 µM. For the same compound, the TGI was over 100 µM in experiment [2], 7.58 µM in experiment [3] and over 100 µM in experiment [4].
`N#CC1(C#N)N[C@@H](c2ccsc2)[C@H]2C(=O)N(c3ccccc3)C(=O)[C@H]21`: the TGI in experiment [1], in experiment [2], in experiment [3] and in experiment [4] was over 100 µM throughout.
As to `CC(=O)OC1CC(OC2C(O)CC(OC3C(O)CC(OC4CCC5(C)C(CCC6C5CC(O)C5(C)C(C7=CC(=O)OC7)CCC65O)C4)OC3C)OC2C)OC(C)C1OC1OC(CO)C(O)C(O)C1O` (configuration not stated), the TGI in experiment [1] is 0.185 µM; in experiment [2], 0.517 µM; in experiment [3], 0.179 µM; in experiment [4], 0.633 µM.
As to `CC(=O)NC(Cc1ccc(O)cc1)C(=O)O` (configuration not stated), the TGI in experiment [1], in experiment [2], in experiment [3] and in experiment [4] was over 100 µM throughout.
On to `[N-]=[N+]=NC[C@H]1OCO[C@H](CN=[N+]=[N-])[C@@H](OCCOCCCl)[C@@H]1OCCOCCCl`, for which the TGI in experiment [1], in experiment [3] and in experiment [4] was over 100 µM in each case.
`Nc1nc(SCCc2ccccc2)c2[nH]cnc2n1`: the TGI in experiment [1], in experiment [2], in experiment [3] and in experiment [4] was over 100 µM throughout.
In the case of `COc1ccc2c(c1)/C(=C/CCN(C)C)c1ccccc1S2`, the TGI in experiment [1], in experiment [2], in experiment [3] and in experiment [4] was over 100 µM throughout.
`C=CCN1C[C@H](C)N([C@H](c2ccc(C(=O)NC(CC)CC)cc2)c2cccc(OC)c2)C[C@H]1C`: the TGI in experiment [1], in experiment [2], in experiment [3] and in experiment [4] was over 100 µM each time.
In the case of `C[C@]12CCC(O)CC1=CC[C@@H]1[C@@H]2CC[C@]2(C)C(=O)[C@H](n3ccnc3)C[C@@H]12` (some centres not stated), the TGI in experiment [1], in experiment [2] and in experiment [3] was over 100 µM each time.
For `CC1CCC(n2c3cnccc3c3cnc(Nc4ccc5c(n4)CCN(C(=O)CO)C5)nc32)CC1` (configuration not stated), in experiment [2], the GI50 was over 100 µM and the TGI was over 100 µM.
For the compound `C[C@@H](NC(=O)[C@@H]1C[C@]1(C)COC(=O)c1cc([N+](=O)[O-])cc([N+](=O)[O-])c1)c1cccc2ccccc12`, the TGI in experiment [1], in experiment [2], in experiment [3] and in experiment [4] was over 100 µM each time.
As to `O=c1ccc(-c2ccccc2)n[nH]1`, the TGI in experiment [1], in experiment [2], in experiment [3] and in experiment [4] was over 100 µM each time.
As for `COc1cccc(C(=O)O[C@H]2[C@@H]3[C@]4(OC(C)=O)CO[C@@H]4C[C@H](O)[C@@]3(C)C(=O)[C@H](OC(C)=O)C3=C(C)[C@@H](OC(=O)[C@H](O)[C@@H](NC(=O)OC(C)(C)C)c4ccco4)C[C@]2(O)C3(C)C)c1`, the results for the TGI in experiment [1] and in experiment [3] were over 37.5 µM and 0.151 µM, respectively.
Consider `Cc1ccc(N=NC(=Nc2ccccc2)c2ccc(N(CCC#N)CCC#N)cc2)cc1`, for which the TGI in experiment [1] was over 100 µM; in experiment [2], 64.8 µM; in experiment [3] it was 92.4 µM; in experiment [4] it was over 100 µM.
For the compound `CN(C(=O)C(Cc1ccccc1)NC(=O)OC(C)(C)C)C1(C(=O)NC(Cc2ccccc2)C(=O)OCc2ccccc2)CCCC1` (stereo not drawn) (Boc-Phe-[NMeAc5c]-Phe-OBn; configuration not given here), the TGI in experiment [1], in experiment [2], in experiment [3] and in experiment [4] was over 100 µM throughout.
As for `c1ccc(N=c2sc3ccccc3nc2Nc2ccccc2)cc1`, the TGI in experiment [1], in experiment [2], in experiment [3] and in experiment [4] was over 100 µM throughout.
With `COc1cc2c(c(OC)c1OC)C(=O)[C@@H]1[C@H]2N1C(N)=O`, the TGI in experiment [1], in experiment [3] and in experiment [4] was over 100 µM in each case.
For `CCCCCCc1cc2cc(-c3csc(CC#N)n3)c(=O)oc2cc1O`, the TGI in experiment [1] was over 100 µM; in experiment [2] it was 69 µM; in experiment [3], over 100 µM; in experiment [4], over 100 µM.
As for `N#Cc1c(-c2ccccc2)/c(=C\Nc2cccc(C(F)(F)F)c2)c(=O)n2c1nc1ccccc12`, the TGI in experiment [1], in experiment [3] and in experiment [4] was over 100 µM throughout.
As for `O=C1CCCc2cc3c(cc21)CC1(Cc2ccccc2C1)C3`, the TGI in experiment [2] was 53 µM; in experiment [3], 21.5 µM; in experiment [4], 96.9 µM.
With `CC1(C)N=[N+]([O-])C1(C)C`, the TGI in experiment [1] and in experiment [4] was over 100 µM throughout.
`N#CCCC1C(C#N)C2(Cl)CC1(Cl)C(Cl)=C2Cl` (configuration not stated): the TGI in experiment [1], in experiment [3] and in experiment [4] was over 10 µM throughout.
Consider `C=C1C(=O)O[C@@H]2C(=O)[C@@H](C)CCC/C(C)=C/CC[C@@]3(C)O[C@@H]3C[C@@H]12`, for which the TGI in experiment [2] is 31.2 µM; in experiment [3] it was over 100 µM; in experiment [4] it was over 100 µM.
Take `COc1cc(C(=O)N(C(=S)OCc2ccccn2)c2ccccc2)cc(OC)c1OC`: the TGI in experiment [1] and in experiment [4] was over 100 µM each time.
For the compound `ClCCN1CCC2(CC1)SSC1(CCN(CCCl)CC1)S2`, the TGI in experiment [1] was 30.9 µM; in experiment [2], 29.2 µM; in experiment [3], 92.5 µM.
